Test results reported in patent US20220289758A1, “7-OXA-3,4-DIAZABICYCLO [4.1.0] HEPT-4-EN-2-ONE COMPOUND AND HERBICIDE” (Nippon Soda Co., Ltd., priority 2019, published 2022).

What was measured:
[1] = tested on: Digitaria ciliaris; assay: Foliar spraying treatment, weed killing rate; format: in vivo; settings: 504 h, read-out: herbicidal activity; for pest or weed control at 250 g/ha: foliar spray, 250 g per hectare, after 3 weeks (Table 13); for pest or weed control at 1000 g/ha: foliar spray, 1,000 g per hectare, after 3 weeks (Table 12)
Experimental: (§1) (1) Preparation of Test Emulsion
(§2) POA allylphenyl ether (4.1 parts by weight), POE-POP glycol (1 part by weight), POE sorbitan laurate (0.8 parts by weight), glycerin (2.6 parts by weight), dimethylformamide (65.9 parts by weight), N-methylpyrrolidone (5.1 parts by weight), cyclohexanone (15.4 parts by weight), and aromatic hydrocarbons (5.1 parts by weight) were mixed and dissolved to prepare an emulsion. The compound of the present invention (4 mg) was dissolved in this emulsion (100 μL) to prepare a test emulsion. POA means “polyoxyalkylene”, POE means “polyoxyethylene”, and POP means “polyoxypropylene”.
(§3) (2) Foliar Spraying Treatment
(§4) A 150 cm^2 pot was filled with soil, and seeds of Avena sativa, Matricaria chamomilla, Setaria faberi, Digitaria ciliaris, Abutilon theophrasti and Amaranthus retroflexus were sown into the surface layer which was covered lightly with soil. Thereafter, they were grown in a greenhouse. When each plant grew to a plant height of 2 to 4 cm, the above test emulsion was diluted so that the amount of the active ingredient became a predetermined amount, and sprayed on the foliage with a small sprayer at a spray water volume of 250 L per hectare.
(§5) After 3 weeks, above ground weights of weeds in the untreated and treated areas were measured for each weed, and the weed killing rate was calculated by the following calculation formula.
(§6) (4) Calculation Formula for Weed Killing Rate
(§7) Weed killing rate (%)=[(above ground weight of weeds in untreated area)−(above ground weight of weeds in treated area)/(above ground weight of weeds in untreated area)]×100

[2] = tested on: Setaria faberi; assay: Foliar spraying treatment, weed killing rate; format: in vivo; settings: 504 h, read-out: herbicidal activity; for pest or weed control at 250 g/ha: foliar spray, 250 g per hectare, after 3 weeks (Table 11); for pest or weed control at 1000 g/ha: foliar spray, 1,000 g per hectare, after 3 weeks (Table 10)
Experimental: as §1, §2, §3, §4, §5, §6, §7

[3] = tested on: Matricaria chamomilla; assay: Foliar spraying treatment, weed killing rate; format: in vivo; settings: 504 h, read-out: herbicidal activity; for pest or weed control at 250 g/ha: foliar spray, 250 g per hectare, after 3 weeks (Table 7); for pest or weed control at 1000 g/ha: foliar spray, 1,000 g per hectare, after 3 weeks (Table 6)
Experimental: as §1, §2, §3, §4, §5, §6, §7

[4] = tested on: Amaranthus retroflexus; assay: Foliar spraying treatment, weed killing rate; format: in vivo; settings: 504 h, read-out: herbicidal activity; for pest or weed control at 250 g/ha: foliar spray, 250 g per hectare, after 3 weeks (Table 15); for pest or weed control at 1000 g/ha: foliar spray, 1,000 g per hectare, after 3 weeks (Table 14)
Experimental: as §1, §2, §3, §4, §5, §6, §7

[5] = tested on: Abutilon theophrasti; assay: Foliar spraying treatment, weed killing rate; format: in vivo; settings: 504 h, read-out: herbicidal activity; for pest or weed control at 250 g/ha: foliar spray, 250 g per hectare, after 3 weeks (Table 5); for pest or weed control at 1000 g/ha: foliar spray, 1,000 g per hectare, after 3 weeks (Table 4)
Experimental: as §1, §2, §3, §4, §5, §6, §7

COC12OC1(c1ccc(C(F)(F)F)cc1S(C)(=O)=O)C=NN(C)C2=O (centres unmarked) [Compound A-1, 1-methoxy-3-methyl-6-(2-(methylsulfonyl)-4-(trifluoromethyl)phenyl)-7-oxa-3,4-diazabicyclo [4.1.0] hept-4-en-2-one]
128 °C: melting point
≥ 80%: pest or weed control at 250 g/ha [1] | pest or weed control at 1000 g/ha [1] | pest or weed control at 250 g/ha [2] | pest or weed control at 1000 g/ha [2] | pest or weed control at 250 g/ha [3] | pest or weed control at 1000 g/ha [3] | pest or weed control at 250 g/ha [4] | pest or weed control at 1000 g/ha [4] | pest or weed control at 250 g/ha [5] | pest or weed control at 1000 g/ha [5]

COC12OC1(c1ccc(C(F)(F)F)c3c1OCCS3(=O)=O)C=NN(C)C2=O (centres unmarked) [Compound B-13]
≥ 80%: pest or weed control at 1000 g/ha [1] | pest or weed control at 250 g/ha [3] | pest or weed control at 1000 g/ha [3] | pest or weed control at 250 g/ha [4] | pest or weed control at 1000 g/ha [4] | pest or weed control at 250 g/ha [5] | pest or weed control at 1000 g/ha [5]

COC12OC1(c1ccc(C(F)(F)F)c3c1S(=O)(=O)CCC3)C=NN(C)C2=O (centres unmarked) [Compound B-5]
132 to 134 °C: melting point
≥ 80%: pest or weed control at 250 g/ha [1] | pest or weed control at 250 g/ha [2] | pest or weed control at 250 g/ha [3] | pest or weed control at 250 g/ha [4] | pest or weed control at 250 g/ha [5]

COC12OC1(c1cc(C)c3c(c1C)C1(CCS3(=O)=O)OCCO1)C=NN(C)C2=O (centres unmarked) [Compound B-11]
≥ 80%: pest or weed control at 250 g/ha [1] | pest or weed control at 1000 g/ha [1] | pest or weed control at 1000 g/ha [2] | pest or weed control at 1000 g/ha [3] | pest or weed control at 250 g/ha [4] | pest or weed control at 1000 g/ha [4] | pest or weed control at 250 g/ha [5] | pest or weed control at 1000 g/ha [5]

CN1N=CC2(c3ccc(C(F)(F)F)c4c3CCCS4(=O)=O)OC2(OCCON2C(=O)c3ccccc3C2=O)C1=O (centres unmarked) [Compound B-2]
≥ 80%: pest or weed control at 250 g/ha [1] | pest or weed control at 250 g/ha [2] | pest or weed control at 250 g/ha [3] | pest or weed control at 250 g/ha [4] | pest or weed control at 250 g/ha [5]

COC12OC1(c1cccc3c1CCCS3(=O)=O)C=NN(C)C2=O (centres unmarked) [Compound B-7]
179 to 181 °C: melting point
≥ 80%: pest or weed control at 1000 g/ha [1] | pest or weed control at 1000 g/ha [2] | pest or weed control at 250 g/ha [3] | pest or weed control at 1000 g/ha [3] | pest or weed control at 1000 g/ha [4] | pest or weed control at 1000 g/ha [5]

COC12OC1(c1ccc(C(F)(F)F)c3c1CCCCS3(=O)=O)C=NN(C)C2=O (centres unmarked) [Compound B-9]
≥ 80%: pest or weed control at 250 g/ha [1] | pest or weed control at 1000 g/ha [1] | pest or weed control at 250 g/ha [2] | pest or weed control at 1000 g/ha [2] | pest or weed control at 250 g/ha [3] | pest or weed control at 1000 g/ha [3] | pest or weed control at 250 g/ha [4] | pest or weed control at 1000 g/ha [4] | pest or weed control at 250 g/ha [5] | pest or weed control at 1000 g/ha [5]

COC12OC1(c1ccc(C(F)(F)F)cc1S(C)(=O)=O)C=NN(C1CCCCO1)C2=O (centres unmarked) [Compound B-14]
65 to 66 °C: melting point
≥ 80%: pest or weed control at 1000 g/ha [1] | pest or weed control at 1000 g/ha [2] | pest or weed control at 250 g/ha [4] | pest or weed control at 1000 g/ha [4]

COC12OC1(c1ccc(C(F)(F)F)c3c1CCCO3)C=NN(C)C2=O (centres unmarked) [Compound B-8]
153 to 155 °C: melting point
≥ 80%: pest or weed control at 250 g/ha [4] | pest or weed control at 1000 g/ha [4] | pest or weed control at 1000 g/ha [5]

CN1N=CC2(c3ccc(C(F)(F)F)c4c3CCCS4(=O)=O)OC2(OCc2ccn(CC(F)(F)F)n2)C1=O (centres unmarked) [Compound B-3]
112 to 117 °C: melting point
≥ 80%: pest or weed control at 250 g/ha [2] | pest or weed control at 250 g/ha [4] | pest or weed control at 250 g/ha [5]

COC12OC1(c1ccc3c(c1C)S(=O)(=O)CCC3(C)C)C=NN(C)C2=O (centres unmarked) [Compound B-12]
≥ 80%: pest or weed control at 1000 g/ha [1] | pest or weed control at 1000 g/ha [3] | pest or weed control at 1000 g/ha [4] | pest or weed control at 1000 g/ha [5]

COC12OC1(c1cc(F)c(C(F)(F)F)c3c1CCCS3(=O)=O)C=NN(C)C2=O (centres unmarked) [Compound B-16]
205 to 206 °C: melting point
≥ 80%: pest or weed control at 1000 g/ha [1] | pest or weed control at 1000 g/ha [2] | pest or weed control at 1000 g/ha [3] | pest or weed control at 1000 g/ha [4] | pest or weed control at 1000 g/ha [5]

COC12OC1(c1ccc(C(F)(F)F)c3c1CCCS3(=O)=O)C=NN(C)C2=O (centres unmarked) [Compound B-1, 1-methoxy-3-methyl-6-(1,1-dioxido-8-(trifluoromethyl)thiochroman-5-yl)-7-oxa-3,4-diazabicyclo [4.1.0] hept-4-en-2-one]
≥ 80%: pest or weed control at 250 g/ha [1] | pest or weed control at 1000 g/ha [1] | pest or weed control at 250 g/ha [2] | pest or weed control at 1000 g/ha [2] | pest or weed control at 250 g/ha [3] | pest or weed control at 1000 g/ha [3] | pest or weed control at 250 g/ha [4] | pest or weed control at 1000 g/ha [4] | pest or weed control at 250 g/ha [5] | pest or weed control at 1000 g/ha [5]

COC12OC1(c1ccc(C(F)(F)F)c(N=S3(=O)CCCCC3)c1Cl)C=NN(C)C2=O (centres unmarked) [Compound B-4]
≥ 80%: pest or weed control at 250 g/ha [2]
158 to 161 °C: melting point

COC12OC1(c1cc3c(cc1S(C)(=O)=O)CCC3)C=NN(C)C2=O (centres unmarked) [Compound B-6]
150 to 153 °C: melting point
≥ 80%: pest or weed control at 250 g/ha [1] | pest or weed control at 1000 g/ha [1] | pest or weed control at 250 g/ha [3] | pest or weed control at 1000 g/ha [3] | pest or weed control at 250 g/ha [4] | pest or weed control at 1000 g/ha [4] | pest or weed control at 250 g/ha [5] | pest or weed control at 1000 g/ha [5]

COC12OC1(c1ccc(C(F)(F)F)c3c1CCS3(=O)=O)C=NN(C)C2=O (centres unmarked) [Compound B-10]
≥ 80%: pest or weed control at 250 g/ha [3] | pest or weed control at 1000 g/ha [3] | pest or weed control at 250 g/ha [4] | pest or weed control at 1000 g/ha [4] | pest or weed control at 250 g/ha [5] | pest or weed control at 1000 g/ha [5]
172 to 177 °C: melting point

COC12OC1(c1ccc(C(F)(F)F)c(S(C)(=O)=Nc3ccc(Cl)cc3)c1C)C=NN(C)C2=O (centres unmarked) [Compound B-15]
≥ 80%: pest or weed control at 250 g/ha [1] | pest or weed control at 250 g/ha [2] | pest or weed control at 250 g/ha [3] | pest or weed control at 250 g/ha [4] | pest or weed control at 250 g/ha [5]
